Measurements from ChEMBL document CHEMBL4483862, “Open-source discovery of chemical leads for next-generation chemoprotective antimalarials” (2018).

Test system: Plasmodium berghei
Assay: Luciferase/luciferin-expressing antifolate-resistant parasites were used to infect a culture of HepG2 cells that were pre-incubated with compounds. Infected hepatocytes emit light due to the luciferase reaction. Assay results are presented as the percent inhibition of light emission compared to control. […]
Type: functional
Settings: sporozoite; for IC90: read-out: LUCIFERASE INFECTION ASSAY - IC90

SMILES	IC90	further results
O=C1C=CC(=O)N1c1ccc(F)cc1F	13.8 µM	IC50 (FFLUC_HILL_SLOPE 8.62, FFLUC_R_SQUARED 0.718, PBLUC_HILL_SLOPE 4.26, PBLUC_R_SQUARED 0.573, read-out: LUCIFERASE INFECTION ASSAY - IC50): 8.24 µM
Cc1onc(-c2ccc(Cl)cc2Cl)c1-c1csc(N/N=C/c2ccccc2Cl)n1	> 7.12 µM	IC50 (FFLUC_HILL_SLOPE 8.51, FFLUC_R_SQUARED 0.488, HEPG2TOX_HILL_SLOPE 2.88, HEPG2TOX_R_SQUARED 0.834, read-out: LUCIFERASE INFECTION ASSAY - IC50): > 7.12 µM
CNc1nc2cnc(Nc3cccc(F)c3)cc2n1-c1cccc(C(F)(F)F)c1	> 10 µM	IC50 (FFLUC_HILL_SLOPE 8.44, FFLUC_R_SQUARED 0.0352, read-out: LUCIFERASE INFECTION ASSAY - IC50): > 10 µM
COc1ccc(NS(=O)(=O)c2cc(NC(=O)c3cc(C4CC4)on3)ccc2N2CCCCC2)cc1	> 10 µM	IC50 (FFLUC_HILL_SLOPE 8.45, FFLUC_R_SQUARED 0.551, read-out: LUCIFERASE INFECTION ASSAY - IC50): > 10 µM
Cc1cc2oc(=O)cc(Cn3cnc4sc(C)c(-c5ccccc5)c4c3=O)c2cc1Cl	> 10 µM	IC50 (FFLUC_HILL_SLOPE 8.53, FFLUC_R_SQUARED 0.709, PBLUC_HILL_SLOPE 1.77, PBLUC_R_SQUARED 0.508, read-out: LUCIFERASE INFECTION ASSAY - IC50): 4.81 µM
C(=C(c1nc2ccccc2s1)c1nc2ccccc2s1)C1=C(c2ccccc2)Oc2ccccc2O1	> 10 µM	IC50 (FFLUC_HILL_SLOPE 7.98, FFLUC_R_SQUARED 0.561, PBLUC_HILL_SLOPE 1.21, PBLUC_R_SQUARED 0.509, read-out: LUCIFERASE INFECTION ASSAY - IC50): 9.27 µM
NS(=O)(=O)c1ccc(CCNc2nn3c(-c4cccc(C(F)(F)F)c4)cnc3s2)cc1	> 7.06 µM	IC50 (FFLUC_HILL_SLOPE 7.49, FFLUC_R_SQUARED 0.26, read-out: LUCIFERASE INFECTION ASSAY - IC50): > 7.06 µM
COCCCn1c(C)cc(C(=O)CSc2nc3scc(-c4ccccc4)c3c(=O)n2C)c1C	> 10 µM	IC50 (FFLUC_HILL_SLOPE 7.71, FFLUC_R_SQUARED 0.356, PBLUC_HILL_SLOPE 2.63, PBLUC_R_SQUARED 0.68, read-out: LUCIFERASE INFECTION ASSAY - IC50): 6.41 µM
O/N=C/c1ncc(C(F)(F)F)cc1Sc1ccc(Cl)cc1	> 9.92 µM	IC50 (FFLUC_HILL_SLOPE 8, FFLUC_R_SQUARED 0.0374, HEPG2TOX_HILL_SLOPE 8.44, HEPG2TOX_R_SQUARED 0.673, PBLUC_HILL_SLOPE 11.8, PBLUC_R_SQUARED 0.204, read-out: LUCIFERASE INFECTION ASSAY - IC50): 9.28 µM
O=C(Nc1ccc(S(=O)(=O)N2CCCC2)cc1)c1cc([N+](=O)[O-])ccc1Sc1nnnn1-c1ccccc1	> 10 µM	IC50 (FFLUC_HILL_SLOPE 8.42, FFLUC_R_SQUARED 0.732, read-out: LUCIFERASE INFECTION ASSAY - IC50): > 10 µM
O=C(CSc1nn(Cc2ccccc2)/c(=N\Cc2ccccc2)s1)NC(=O)NC1CCCCC1	> 10 µM	IC50 (FFLUC_HILL_SLOPE 7.96, FFLUC_R_SQUARED 0.22, read-out: LUCIFERASE INFECTION ASSAY - IC50): > 10 µM
COC(=O)c1ccc(OC(=O)c2cc3c(s2)CCC3)cc1	> 10 µM	IC50 (FFLUC_HILL_SLOPE 8.2, FFLUC_R_SQUARED 0.68, read-out: LUCIFERASE INFECTION ASSAY - IC50): > 10 µM
CN1CCN(c2ccc(-c3cn4c(-c5ccc(O)cc5)cnc4cn3)cc2)CC1	> 8.56 µM	IC50 (FFLUC_HILL_SLOPE 7.73, FFLUC_R_SQUARED 0.293, read-out: LUCIFERASE INFECTION ASSAY - IC50): > 8.56 µM
CC(C)NC(=O)Nc1ccc(OCc2ncc(C(F)(F)F)cc2Cl)cc1	> 8.51 µM	IC50 (FFLUC_HILL_SLOPE 8.07, FFLUC_R_SQUARED 0.113, HEPG2TOX_HILL_SLOPE 6.87, HEPG2TOX_R_SQUARED 0.428, PBLUC_HILL_SLOPE 0.555, PBLUC_R_SQUARED 0.618, read-out: LUCIFERASE INFECTION ASSAY - IC50): 1.56 µM
C=CCN(c1ccc(F)cc1)S(=O)(=O)c1cc(C(=O)OCC(=O)C23CC4CC(CC(C4)C2)C3)ccc1Cl	> 10 µM	IC50 (FFLUC_HILL_SLOPE 7.93, FFLUC_R_SQUARED 0.0643, HEPG2TOX_HILL_SLOPE 7, HEPG2TOX_R_SQUARED 0.225, PBLUC_HILL_SLOPE 4.62, PBLUC_R_SQUARED 0.186, read-out: LUCIFERASE INFECTION ASSAY - IC50): 6.94 µM
O=C(Cn1ncc(Cl)c(Cl)c1=O)Nc1cccc(Oc2ccccc2)c1	> 10 µM	IC50 (FFLUC_HILL_SLOPE 8.65, FFLUC_R_SQUARED 0.47, PBLUC_HILL_SLOPE 2.15, PBLUC_R_SQUARED 0.511, read-out: LUCIFERASE INFECTION ASSAY - IC50): 6.79 µM

SMILES	IC90	further results
Cc1cccc(Cn2nc(C(C)(C)C)cc2-c2nnc(SCC(=O)c3ccc(Cl)cc3)o2)c1	> 6.86 µM	IC50 (FFLUC_HILL_SLOPE 7.72, FFLUC_R_SQUARED 0.435, PBLUC_HILL_SLOPE 3.63, PBLUC_R_SQUARED 0.42, read-out: LUCIFERASE INFECTION ASSAY - IC50): 6.23 µM
COCc1nn2c3c(nnc2c1-c1ccccc1)C(=O)CC(c1ccccc1)C3 (configuration not stated)	3.29 µM	IC50 (FFLUC_HILL_SLOPE 8, FFLUC_R_SQUARED 0.814, HEPG2TOX_HILL_SLOPE 2.3, HEPG2TOX_R_SQUARED 0.367, PBLUC_HILL_SLOPE 4.06, PBLUC_R_SQUARED 0.599, read-out: LUCIFERASE INFECTION ASSAY - IC50): 1.92 µM
Cn1c(-c2ccc(Cl)cc2)csc1=Nc1ccc(Cl)c(Cl)c1	3.46 µM	IC50 (FFLUC_HILL_SLOPE 8.54, FFLUC_R_SQUARED 0.841, PBLUC_HILL_SLOPE 1.64, PBLUC_R_SQUARED 0.468, read-out: LUCIFERASE INFECTION ASSAY - IC50): 0.91 µM
Cc1cc2n(n1)c(C)cc(C)[n+]2-c1ccccc1	4.57 µM	IC50 (FFLUC_HILL_SLOPE 7.82, FFLUC_R_SQUARED 0.313, HEPG2TOX_HILL_SLOPE 3.53, HEPG2TOX_R_SQUARED 0.979, PBLUC_HILL_SLOPE 9.65, PBLUC_R_SQUARED 0.44, read-out: LUCIFERASE INFECTION ASSAY - IC50): 3.64 µM
Cc1sc2nc(-c3cccnc3)nc(N3CCOCC3)c2c1-c1ccccc1	9.9 µM	IC50 (FFLUC_HILL_SLOPE 7.85, FFLUC_R_SQUARED 0.0779, PBLUC_HILL_SLOPE 15.6, PBLUC_R_SQUARED 0.278, read-out: LUCIFERASE INFECTION ASSAY - IC50): 8.61 µM
CC(C)Nc1nc(NCC2CCCCC2)c2sccc2n1	> 10.8 µM	IC50 (FFLUC_HILL_SLOPE 8.35, FFLUC_R_SQUARED 0.136, PBLUC_HILL_SLOPE 0.461, PBLUC_R_SQUARED 0.456, read-out: LUCIFERASE INFECTION ASSAY - IC50): 1.8 µM
COc1ccc(-c2nnc(SCc3csc(-c4ccccc4)n3)n2CCc2ccccc2)cc1	> 10 µM	IC50 (FFLUC_HILL_SLOPE 7.96, FFLUC_R_SQUARED 0.134, read-out: LUCIFERASE INFECTION ASSAY - IC50): > 10 µM
CCCCNC(=O)c1c(NC(=O)c2ccc(C(F)(F)F)cc2)nc2ccccn12	0.365 µM	IC50 (FFLUC_HILL_SLOPE 8.16, FFLUC_R_SQUARED 0.656, HEPG2TOX_HILL_SLOPE 0.864, HEPG2TOX_R_SQUARED 0.784, PBLUC_HILL_SLOPE 12.7, PBLUC_R_SQUARED 0.564, read-out: LUCIFERASE INFECTION ASSAY - IC50): 0.306 µM
COc1ccc(O)c(C(=O)c2cnc(Nc3nc(C)c4ccccc4n3)nc2)c1	> 10 µM	IC50 (FFLUC_HILL_SLOPE 8.56, FFLUC_R_SQUARED 0.251, read-out: LUCIFERASE INFECTION ASSAY - IC50): > 10 µM
NC(=O)C1CCN(c2nc(/C=C/c3ccccc3)nc3sc4c(c23)CCCC4)CC1	> 10 µM	IC50 (FFLUC_HILL_SLOPE 8.41, FFLUC_R_SQUARED 0.401, PBLUC_HILL_SLOPE 20.5, PBLUC_R_SQUARED 0.298, read-out: LUCIFERASE INFECTION ASSAY - IC50): 9.42 µM
N#CC1c2ccccc2Oc2ccccc21	> 15.9 µM	IC50 (FFLUC_HILL_SLOPE 8.54, FFLUC_R_SQUARED 0.413, HEPG2TOX_HILL_SLOPE 16, HEPG2TOX_R_SQUARED 0.746, PBLUC_HILL_SLOPE 2.78, PBLUC_R_SQUARED 0.395, read-out: LUCIFERASE INFECTION ASSAY - IC50): 10.4 µM
CCOC(=O)C1=C(C)NC2=C(C(=O)C(c3c(F)cccc3Cl)CC2)C1c1ccc(Cl)cc1Cl (configuration not stated)	> 6.49 µM	IC50 (FFLUC_HILL_SLOPE 7.96, FFLUC_R_SQUARED 0.479, HEPG2TOX_HILL_SLOPE 1.9, HEPG2TOX_R_SQUARED 0.947, PBLUC_HILL_SLOPE 15.9, PBLUC_R_SQUARED 0.177, read-out: LUCIFERASE INFECTION ASSAY - IC50): 6.08 µM
NC(=O)c1ccsc1NC(=O)CN1CCC(c2c[nH]c3ccccc23)CC1	> 10 µM	IC50 (FFLUC_HILL_SLOPE 7.73, FFLUC_R_SQUARED 0.279, read-out: LUCIFERASE INFECTION ASSAY - IC50): > 10 µM
O=c1[nH]c2ccccc2c(-c2ccccc2)c1SCc1ccc2c(c1)OCO2	> 10 µM	IC50 (FFLUC_HILL_SLOPE 8.09, FFLUC_R_SQUARED 0.216, HEPG2TOX_HILL_SLOPE 4.47, HEPG2TOX_R_SQUARED 0.957, PBLUC_HILL_SLOPE 2.12, PBLUC_R_SQUARED 0.535, read-out: LUCIFERASE INFECTION ASSAY - IC50): 4.38 µM
O=C1C(Cl)=C(Nc2ccc(O)cc2)C(=O)c2ccccc21	4.51 µM	IC50 (FFLUC_HILL_SLOPE 7.86, FFLUC_R_SQUARED 0.408, HEPG2TOX_HILL_SLOPE 4.2, HEPG2TOX_R_SQUARED 0.984, PBLUC_HILL_SLOPE 12.7, PBLUC_R_SQUARED 0.571, read-out: LUCIFERASE INFECTION ASSAY - IC50): 3.8 µM
